These results are taken from publication PMC5630390, “7-ketocholesterol and 27-hydroxycholesterol decreased doxorubicin sensitivity in breast cancer cells: estrogenic activity and mTOR pathway” (Oncotarget, 2017).

For this test, the target named is T1, ERα (Homo sapiens, UniProt P03372).
T1 construct: gene ESR1; recombinant human ERα expressed in yeast with a LacZ reporter construct
T1 sequence (P03372 1-595): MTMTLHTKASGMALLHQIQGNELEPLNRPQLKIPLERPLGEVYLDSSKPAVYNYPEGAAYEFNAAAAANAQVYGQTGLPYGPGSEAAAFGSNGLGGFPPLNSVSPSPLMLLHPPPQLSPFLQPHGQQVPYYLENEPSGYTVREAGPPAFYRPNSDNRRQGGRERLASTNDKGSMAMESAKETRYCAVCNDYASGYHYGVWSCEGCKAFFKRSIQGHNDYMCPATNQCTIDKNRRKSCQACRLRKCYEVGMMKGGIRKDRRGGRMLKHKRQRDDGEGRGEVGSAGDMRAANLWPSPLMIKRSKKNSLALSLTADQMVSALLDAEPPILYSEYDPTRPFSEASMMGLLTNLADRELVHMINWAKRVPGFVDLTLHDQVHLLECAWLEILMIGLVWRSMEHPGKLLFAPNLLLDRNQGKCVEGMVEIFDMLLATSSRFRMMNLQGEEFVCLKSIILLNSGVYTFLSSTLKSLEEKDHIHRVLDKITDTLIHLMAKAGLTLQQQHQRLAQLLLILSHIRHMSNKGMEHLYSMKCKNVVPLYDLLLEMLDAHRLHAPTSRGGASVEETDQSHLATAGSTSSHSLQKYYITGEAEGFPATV
Nature of the test: yeast ER reporter (YES) assay, agonist mode, […] h; weak, […] stimulation at […]. The class given is cell-based.

Take `CC(C)CCC[C@@H](C)[C@H]1CC[C@H]2[C@@H]3C(=O)C=C4C[C@@H](O)CC[C@]4(C)[C@H]3CC[C@]12C` [7-KC, 7-ketocholesterol]: the activation at 50 µM is 14%.
